These results are taken from patent US6107291A, “Azepine or larger medium ring derivatives and methods of use” (Amgen Inc., priority 1998, dated 2000).

Test [1] deals with Human fibroblast stromelysin (HFS) (Homo sapiens, UniProt P08254). The experiment in a line: Human Fibroblast Stromelysin Assay (fluorogenic peptide substrate). Type of test: biochemical.
Procedure: Human fibroblast stromelysin (HFS) activity is determined by using fluorogenic peptide substrate Dnp-Pro-b-Cyclohexyl-Ala-Gly-Cys(Me)-His-Ala-Lys-(N-methylanthranilic acid)-NH2. The N-terminus Dnp group and the C-terminus N-methyl-anthranilyl moiety (Nma) are fluorescence self-quenching until the peptide is cleaved at the Gly-Cys(me) bond. The fluorescence from the cleavage products is measured on a Bio-Tek Instrument FL500 fluorescence micro-plate reader (excitation at 360 nm, emission at 460 nm). […] The test compounds (at 100, 33 & 10 mM) are compared for their inhibition of HFS activity on the substrate against the activity of Actinonin and Ki's were determined on selected compounds.
Test [2] addresses Human neutrophil collagenase (HNC) (Homo sapiens, UniProt P22894). The experiment in a line: Human Neutrophil Collagenase Assay (fluorogenic peptide substrate). Format: biochemical.
Procedure: Human neutrophil collagenase (HNC) activity is determined by using fluorogenic peptide substrate Dnp-Pro-b-Cyclohexyl-Ala-Gly-Cys (Me)-His-Ala-Lys-(N-methylanthranilic acid)-NH2. The N-terminus Dnp group and the C-terminus N-methyl-anthranilyl moiety (Nma) are fluorescence self-quenching until the peptide is cleaved at the Gly-Cys(me) bond. The fluorescence from the cleavage products is measured on a Bio-Tek Instrument FL500 fluorescence micro-plate reader (excitation at 360 nm, emission at 460 nm). […] The test compounds (at 100, 33 & 10 mM) are compared for their inhibition of HNC activity on the substrate against the activity of Actinonin and Ki's were determined on selected compounds.
In test [3] the test system is TNF-α. The following applies: Phase II human trial, rheumatoid arthritis; cited from earlier work.
Test [4] deals with TNF-α. The note with it: soluble receptors for TNF-α; cited from earlier work.

Chain of Human neutrophil collagenase (HNC) (P22894 101-467): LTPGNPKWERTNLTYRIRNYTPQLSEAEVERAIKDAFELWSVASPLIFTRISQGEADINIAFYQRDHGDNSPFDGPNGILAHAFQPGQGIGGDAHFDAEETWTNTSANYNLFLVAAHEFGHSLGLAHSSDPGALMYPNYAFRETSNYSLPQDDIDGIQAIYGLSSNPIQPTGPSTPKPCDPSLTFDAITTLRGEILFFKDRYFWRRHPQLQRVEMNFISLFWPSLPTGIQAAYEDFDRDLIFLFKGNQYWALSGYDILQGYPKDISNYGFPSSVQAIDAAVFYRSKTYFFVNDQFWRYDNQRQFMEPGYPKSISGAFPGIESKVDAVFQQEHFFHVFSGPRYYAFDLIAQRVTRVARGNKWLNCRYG
Chain of Human fibroblast stromelysin (HFS) (P08254 100-477): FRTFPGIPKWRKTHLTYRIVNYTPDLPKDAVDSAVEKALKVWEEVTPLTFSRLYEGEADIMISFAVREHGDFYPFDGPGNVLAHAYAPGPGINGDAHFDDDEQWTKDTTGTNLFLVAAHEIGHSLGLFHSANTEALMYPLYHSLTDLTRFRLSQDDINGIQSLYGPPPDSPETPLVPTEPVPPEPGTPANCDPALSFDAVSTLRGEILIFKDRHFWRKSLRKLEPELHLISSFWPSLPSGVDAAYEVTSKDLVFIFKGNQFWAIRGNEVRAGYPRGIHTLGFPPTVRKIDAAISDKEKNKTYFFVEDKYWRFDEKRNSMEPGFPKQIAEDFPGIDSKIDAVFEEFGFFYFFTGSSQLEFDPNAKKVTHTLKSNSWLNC

For “Dnp-Pro-b-Cyclohexyl-Ala-Gly-Cys (Me)-His-Ala-Lys-(N-methylanthranilic acid)-NH2”, the Km in test [1] and in test [2] was 51 nM in each case.
Take “cA2: a monoclonal antibody specific to TNF-α, cA2”: in the test on TNF-α [3], the swollen joint count entry is “improvement in swollen joint count”.

B1: TNFR-55: soluble receptors for TNF-α (protein, UniProt P19438 30-211, looked up)
extracellular domain: LVPHLGDREKRDSVCPQGKYIHPQNNSICCTKCHKGTYLYNDCPGPGQDTDCRECESGSFTASENHLRHCLSCSKCRKEMGQVEISSCTVDRDTVCGCRKNQYRHYWSENLFQCFNCSLCLNGTVHLSCQEKQNTVCTCHAGFFLRENECVSCSNCKKSLECTKLCLPQIENVKGTEDSGTT
modifications: extracellular domain
notes: soluble receptors for TNF-α
For B1, the “efficacy in animal models of TNF-α mediated disease states” value in the test with TNF-α [4] is given as “demonstrated efficacy in animal models of TNF-α mediated disease states”.

A word on the Km: it is the substrate concentration at which the rate is half of its maximum.
